Consider 12 compounds from patent publication US20240025884A1 (Dong-A ST Co., Ltd., priority 2022, published 2024).

GCN2, sequence (Q9P2K8 whole entry): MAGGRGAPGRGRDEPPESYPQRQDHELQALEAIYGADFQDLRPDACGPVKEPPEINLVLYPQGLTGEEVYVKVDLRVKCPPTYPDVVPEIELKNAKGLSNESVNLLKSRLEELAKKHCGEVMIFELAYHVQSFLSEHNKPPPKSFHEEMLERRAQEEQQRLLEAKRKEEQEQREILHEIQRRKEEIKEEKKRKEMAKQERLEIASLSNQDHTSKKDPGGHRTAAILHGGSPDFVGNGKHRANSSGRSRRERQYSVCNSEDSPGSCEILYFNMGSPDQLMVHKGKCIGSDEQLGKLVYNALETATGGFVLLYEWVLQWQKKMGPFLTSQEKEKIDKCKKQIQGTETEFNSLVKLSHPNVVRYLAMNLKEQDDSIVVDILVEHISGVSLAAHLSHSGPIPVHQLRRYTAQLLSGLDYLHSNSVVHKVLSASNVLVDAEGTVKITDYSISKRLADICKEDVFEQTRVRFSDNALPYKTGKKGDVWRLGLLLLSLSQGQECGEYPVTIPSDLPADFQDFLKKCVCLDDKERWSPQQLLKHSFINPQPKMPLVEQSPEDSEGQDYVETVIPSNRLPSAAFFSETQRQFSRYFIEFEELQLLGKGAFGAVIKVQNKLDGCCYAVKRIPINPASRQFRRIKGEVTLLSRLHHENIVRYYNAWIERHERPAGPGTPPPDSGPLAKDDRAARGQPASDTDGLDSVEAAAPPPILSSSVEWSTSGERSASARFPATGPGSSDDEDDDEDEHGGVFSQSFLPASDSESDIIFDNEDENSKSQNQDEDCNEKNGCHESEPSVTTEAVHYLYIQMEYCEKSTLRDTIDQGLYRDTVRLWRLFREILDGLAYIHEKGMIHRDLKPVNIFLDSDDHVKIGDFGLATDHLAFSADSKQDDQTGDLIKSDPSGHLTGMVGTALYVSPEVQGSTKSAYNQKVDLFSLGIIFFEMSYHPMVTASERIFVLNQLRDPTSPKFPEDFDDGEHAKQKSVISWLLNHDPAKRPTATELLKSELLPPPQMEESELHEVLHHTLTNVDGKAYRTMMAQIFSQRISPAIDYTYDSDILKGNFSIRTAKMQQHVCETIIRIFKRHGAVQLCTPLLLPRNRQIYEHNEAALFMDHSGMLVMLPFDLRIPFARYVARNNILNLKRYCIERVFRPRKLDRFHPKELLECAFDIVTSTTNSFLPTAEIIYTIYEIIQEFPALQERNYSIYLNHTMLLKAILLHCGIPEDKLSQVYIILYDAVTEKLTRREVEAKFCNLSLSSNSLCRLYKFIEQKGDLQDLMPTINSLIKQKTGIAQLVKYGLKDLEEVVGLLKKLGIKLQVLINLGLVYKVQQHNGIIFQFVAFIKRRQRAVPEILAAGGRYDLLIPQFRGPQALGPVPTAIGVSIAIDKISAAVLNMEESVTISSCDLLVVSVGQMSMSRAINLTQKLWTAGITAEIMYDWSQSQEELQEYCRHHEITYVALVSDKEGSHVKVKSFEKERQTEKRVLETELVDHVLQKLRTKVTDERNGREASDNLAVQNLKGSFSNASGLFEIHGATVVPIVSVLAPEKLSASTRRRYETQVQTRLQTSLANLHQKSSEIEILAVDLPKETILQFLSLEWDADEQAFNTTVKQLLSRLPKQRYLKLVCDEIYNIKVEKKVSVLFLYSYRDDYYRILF

The target in the assay is GCN2 (Homo sapiens (Human), UniProt Q9P2K8). Kind of assay: GCN2 Biochemical Assay (TR-FRET, GFP-eIF2S1 substrate phosphorylation). The following applies: read-out: IC50 (GCN2 Inhibitory Activity). The method in brief:
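In-house GCN2 (1.6 nM 2× stock) phosphorylates GFP-eIF2S1 (50 nM 2× stock) with ATP (0.2 mM 2× stock) and tRNA, pH 7.5, 70 min at room temperature; 10-point 3.16-fold compound series. TR-FRET detection with Tb-anti-phospho antibody, 2–3 h, Ex 340/Em 490/520 nm; artifact plate spiked with phospho-substrate.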
In general terms: TR-FRET usually uses a lanthanide donor and a delayed reading to cut background.
The term IC50 denotes the midpoint of a concentration-inhibition curve. As for `Cc1cnc(Nc2cc(C)n(C)n2)nc1-c1c[nH]c2c(N3Cc4c(cncc4-c4ccncc4)C3=O)cccc12` [Example 500, 2-(3-(2-((1,5-dimethyl-1H-pyrazol-3-yl)amino)-5-methylpyrimidin-4-yl)-1H-indol-7-yl)-7-(pyridin-4-yl)-1,2-dihydro-3H-pyrrolo[3,4-c]pyridin-3-one], the IC50 was < 10 nM.
Regarding `Cc1cnc(Nc2cc(C)n(C)n2)nc1-c1c[nH]c2c(N3Cc4c(NC(=O)Cc5ccccc5)cccc4C3=O)cccc12` [Example 305, N-(2-(3-(2-((1,5-dimethyl-1H-pyrazol-3-yl)amino)-5-methylpyrimidin-4-yl)-1H-indol-7-yl)-1-oxoisoindolin-4-yl)-2-phenylacetamide], the IC50 was < 10 nM.
The same measure for `Cc1cnc(Nc2cc(C)n(C)n2)nc1-c1c[nH]c2c(N3Cc4c(NC(=O)C5CC5)cccc4C3=O)cccc12` [Example 300, N-(2-(3-(2-((1,5-dimethyl-1H-pyrazol-3-yl)amino)-5-methylpyrimidin-4-yl)-1H-indol-7-yl)-1-oxoisoindolin-4-yl)cyclopropanecarboxamide]: < 10 nM.
With `Cc1cnc(Nc2cc(C)n(C)n2)nc1-c1c[nH]c2c(NC(=O)CN3CC[C@H](Oc4nccc(N)n4)C3)cccc12` [Example 168, (S)-2-(3-((4-aminopyrimidin-2-yl)oxy)pyrrolidin-1-yl)-N-(3-(2-((1,5-dimethyl-1H-pyrazol-3-yl)amino)-5-methylpyrimidin-4-yl)-1H-indol-7-yl)acetamide] the figure was < 10 nM; with `Cc1cnc(Nc2cc(C)n(C)n2)nc1-c1c[nH]c2c(N3Cc4c(NC(=O)C5CCCC5)cccc4C3=O)cccc12` [Example 336, N-(2-(3-(2-((1,5-dimethyl-1H-pyrazol-3-yl)amino)-5-methylpyrimidin-4-yl)-1H-indol-7-yl)-1-oxoisoindolin-4-yl)cyclopentanecarboxamide], 10 to 100 nM.
With `Cc1cnc(Nc2cc(C)n(C)n2)nc1-c1c[nH]c2c(N3Cc4c(NC(=O)C5CCC(=O)N5)cccc4C3=O)cccc12` (stereo not drawn) [Example 308, N-(2-(3-(2-((1,5-dimethyl-1H-pyrazol-3-yl)amino)-5-methylpyrimidin-4-yl)-1H-indol-7-yl)-1-oxoisoindolin-4-yl)-5-oxopyrrolidine-2-carboxamide] the figure was < 10 nM.
With `Cc1cnc(Nc2cc(C)n(C)n2)nc1-c1c[nH]c2c(NC(=O)CN3CC[C@H](Oc4ccnc(NCCN(C)C)n4)C3)cccc12` [Example 217, (S)-N-(3-(2-((1,5-dimethyl-1H-pyrazol-3-yl)amino)-5-methylpyrimidin-4-yl)-1H-indol-7-yl)-2-(3-((2-((2-(dimethylamino)ethyl)amino)pyrimidin-4-yl)oxy)pyrrolidin-1-yl)acetamide], the IC50 was < 10 nM.
The same measure for `Cc1cnc(Nc2cc(C)n(C)n2)nc1-c1c[nH]c2c(N3Cc4c(NC(=O)C5(C)CC=CC5)cccc4C3=O)cccc12` [Example 311, N-(2-(3-(2-((1,5-dimethyl-1H-pyrazol-3-yl)amino)-5-methylpyrimidin-4-yl)-1H-indol-7-yl)-1-oxoisoindolin-4-yl)-1-methylcyclopent-3-ene-1-carboxamide]: 10 to 100 nM; for `CC(=O)/C=C/c1cccc2c1CN(c1cccc3c(-c4nc(Nc5cc(C)n(C)n5)ncc4C)c[nH]c13)C2=O` [Example 362, (E)-2-(3-(2-((1,5-dimethyl-1H-pyrazol-3-yl)amino)-5-methylpyrimidin-4-yl)-1H-indol-7-yl)-4-(3-oxobut-1-en-1-yl)isoindolin-1-one]: < 10 nM; for `CCNC(=O)/C=C/c1cccc2c1CN(c1cccc3c(-c4nc(Nc5cc(C)n(C)n5)ncc4C)c[nH]c13)C2=O` [Example 364, (E)-3-(2-(3-(2-((1,5-dimethyl-1H-pyrazol-3-yl)amino)-5-methylpyrimidin-4-yl)-1H-indol-7-yl)-1-oxoisoindolin-4-yl)-N-ethylacrylamide]: < 10 nM.
With `CC(=O)Nc1nccc(O[C@H]2CCN(CC(=O)Nc3cccc4c(-c5nc(Nc6cc(C)n(C)n6)ncc5C)c[nH]c34)C2)n1` [Example 196, (S)-2-(3-((2-acetamidopyrimidin-4-yl)oxy)pyrrolidin-1-yl)-N-(3-(2-((1,5-dimethyl-1H-pyrazol-3-yl)amino)-5-methylpyrimidin-4-yl)-1H-indol-7-yl)acetamide] the figure was < 10 nM.
Take `Cc1cnc(Nc2cc(C)n(C)n2)nc1-c1c[nH]c2c(NC(=O)C(=O)N3CC[C@H](Oc4ccnc(NC5CC5)n4)C3)cccc12` [Example 20, (S)-2-(3-((2-(cyclopropylamino)pyrimidin-4-yl)oxy)pyrrolidin-1-yl)-N-(3-(2-((1,5-dimethyl-1H-pyrazol-3-yl)amino)-5-methylpyrimidin-4-yl)-1H-indol-7-yl)-2-oxoacetamide]: the IC50 was < 10 nM.
